The target in experiment [1] is T1, Human mTOR (FLAG-TOR) (Homo sapiens, UniProt P42345).
T1 construct: FLAG
Description: Human mTOR kinase assay with purified enzyme, DELFIA format. It is filed as biochemical. The conditions noted are these: purified human mTOR enzyme, DELFIA format. The method, then: Enzymes are first diluted in kinase assay buffer (10 mM HEPES (pH 7.4), 50 mM NaCl, 50 mM β-glycerophosphate, 10 mM MnCl2, 0.5 mM DTT, 0.25 mM microcystin LR, and 100 mg/mL BSA). To each well, 12 μL of the diluted enzyme is mixed briefly with 0.5 μL test inhibitor or control vehicle dimethylsulfoxide (DMSO). […] The reaction plate is incubated for 2 hours (linear at 1-6 hours) at room temperature with gentle shaking and then terminated by adding 25 μL Stop buffer (20 mM HEPES (pH 7.4), 20 mM EDTA, 20 mM EGTA). […] The DELFIA Assay buffer and Enhancement solution can be purchased from PerkinElmer. 45 μL of the terminated kinase reaction mixture is transferred to a MaxiSorp plate (Nunc) containing 55 μL PBS. The His6-S6K is allowed to attach for 2 hours after which the wells are aspirated and washed once with PBS. 100 μL of DELFIA Assay buffer with 40 ng/mL Eu—P(T389)-S6K antibody is added. The antibody binding is continued for 1 hour with gentle agitation. The wells are then aspirated and washed 4 times with PBS containing 0.05% Tween-20 (PBST). 100 μL of DELFIA Enhancement solution is added to each well and the plates are read in a PerkinElmer Victor model plate reader. Data obtained is used to calculate enzymatic activity and enzyme inhibition by potential inhibitors.

Experiment [2] concerns the target T2, PI3K (Homo sapiens, UniProt P42336).
T2 construct: PI3 Kinase α IC50; other: PI3 Kinase α; other: PI3 Kinase α isoform, fluorescence polarization
Description: Fluorescence polarization assay for PI3K. It is filed as biochemical. To be noted: PI3 Kinase α isoform, fluorescence polarization; read-out: PI3 Kinase α IC50. The method, then:
(§1) This assay is used to determine the IC50 of compounds of the present invention as it identifies inhibitors of PI3 kinase by measuring inhibition.
(§2) The assay is run by placing 5 μL of diluted enzyme per well, then 5 μL of diluted compound (or 9.5 μL enzyme then 0.5 μL compound in DMSO) is added and mixed. Then, 10 μL substrate is added to start the reaction. The samples are incubated 30-60 minutes, then the reaction is stopped by adding 20 μL stop/detector mix. PI3K is diluted with reaction buffer (e.g., 5 μL or 7.5 μL PI3K into 620 μL reaction buffer), and 5 μL of diluted enzyme is used per well. 5 μL reaction buffer or drug diluted in buffer (e.g., 4 μL/100 so final DMSO is 1% in reaction) is added to each. Pipetting up and down mixes the samples. Alternatively, the enzyme can be diluted to 1215 μL. In this case 9.8 μL is added per well and 0.2 μL compound is added in DMSO. To prepare 1 mL of substrate solution, 955 μL reaction buffer, 40 μL PIP2, and 2.5 μL ATP are mixed. 10 μL of substrate is added to each well to start the reaction.
(§3) Stop/detector mix is prepared by mixing 4 μL Red detector and 1.6 μL or 2.0 μL GST-GRP with 1 mL Stop buffer, which results in 10 nM probe and 70 nM GST-GRP). 20 μL of the stop/detector mix is added to each well to stop the reaction. The plates are read after 30-90 minutes keeping the red probe solutions dark. For the zero time point, stop/detector mix is added to the enzyme just before adding substrate. For an extra control, stop/detector mix is added to buffer (no enzyme) and substrate or to just buffer (no substrate). […] Plates are read on machines with filters for Tamra. The units are mP with no enzyme controls reading app 190-220 mP units. Fully active enzyme reduces fluorescence polarization down to 70-100 mP after 30 minutes.
A general note: Polarisation of emitted light reports the rotation of a fluorescent probe.

The target of experiment [3] is T3, PI3K (Homo sapiens, UniProt P48736).
T3 construct: PI3 Kinase γ IC50; other: PI3 Kinase γ; other: PI3 Kinase γ isoform, fluorescence polarization
The experiment in a line: Fluorescence polarization assay for PI3K. It is filed as biochemical. The conditions noted are these: PI3 Kinase γ isoform, fluorescence polarization; read-out: PI3 Kinase γ IC50. The method, then:
as §1, §2, §3

Experiment [4] relates to prostate line LNCap. Description: In vitro cell culture growth assay (MTS), LNCap. The class given is cell-based. The conditions noted are these: Homo sapiens, LNCaP, 72 h, LNCap cells, three days after drug treatment. The method, then: (§4) Human tumor cell lines used include prostate lines LNCap and PC3MM2, breast lines MDA468, MCF7, renal line HTB44 (A498), colon line HCT116, and ovarian line OVCAR3. Cells were plated in 96-well culture plates. One day following plating, the inhibitors were added to cells. Three days after drug treatment, viable cell densities were determined by metabolic conversion (by viable cells) of the dye MTS, a well-established cell proliferation assay. The assays were performed using an assay kit purchased from Promega Corp. (Madison, Wis.) following the protocol supplied with the kit. The MTS assay results were read in a 96-well plate reader by measuring absorbance at 490 nm. The effect of each treatment was calculated as percent of control growth relative to the vehicle-treated cells grown in the same culture plate.

Experiment [5] relates to breast line MDA468. Description: In vitro cell culture growth assay (MTS), MDA468. The class given is cell-based. To be noted: Homo sapiens, 72 h, MDA468 cells, three days after drug treatment. The method, then:
as §4

T3 sequence (P48736 whole entry, canonical isoform): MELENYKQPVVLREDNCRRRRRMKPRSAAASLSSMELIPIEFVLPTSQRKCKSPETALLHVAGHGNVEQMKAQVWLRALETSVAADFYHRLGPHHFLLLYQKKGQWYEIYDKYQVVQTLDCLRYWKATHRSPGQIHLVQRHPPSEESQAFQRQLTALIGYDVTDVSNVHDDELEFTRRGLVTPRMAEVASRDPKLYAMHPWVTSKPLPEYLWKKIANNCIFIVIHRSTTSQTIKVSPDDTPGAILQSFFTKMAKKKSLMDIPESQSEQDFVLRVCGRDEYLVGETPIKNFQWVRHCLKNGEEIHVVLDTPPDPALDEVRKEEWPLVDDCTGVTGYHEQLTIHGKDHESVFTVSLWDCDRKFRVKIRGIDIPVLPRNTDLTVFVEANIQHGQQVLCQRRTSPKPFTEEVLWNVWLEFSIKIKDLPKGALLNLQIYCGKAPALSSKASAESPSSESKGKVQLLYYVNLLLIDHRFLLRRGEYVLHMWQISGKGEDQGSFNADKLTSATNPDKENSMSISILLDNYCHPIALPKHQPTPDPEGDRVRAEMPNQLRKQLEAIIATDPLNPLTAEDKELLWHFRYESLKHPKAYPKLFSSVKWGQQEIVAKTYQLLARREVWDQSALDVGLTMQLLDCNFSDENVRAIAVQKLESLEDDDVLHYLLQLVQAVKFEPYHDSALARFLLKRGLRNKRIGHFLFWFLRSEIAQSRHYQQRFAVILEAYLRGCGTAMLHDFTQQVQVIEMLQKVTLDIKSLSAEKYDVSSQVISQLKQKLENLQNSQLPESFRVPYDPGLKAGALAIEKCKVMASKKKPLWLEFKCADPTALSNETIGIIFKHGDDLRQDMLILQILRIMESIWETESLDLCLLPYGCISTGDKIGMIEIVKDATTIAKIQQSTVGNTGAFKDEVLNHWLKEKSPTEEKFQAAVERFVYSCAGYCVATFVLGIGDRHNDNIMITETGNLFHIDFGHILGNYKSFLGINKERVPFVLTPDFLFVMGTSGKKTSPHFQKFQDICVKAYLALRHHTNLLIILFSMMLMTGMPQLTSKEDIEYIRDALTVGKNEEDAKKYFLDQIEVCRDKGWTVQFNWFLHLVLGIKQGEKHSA
T2 sequence (P42336 whole entry, canonical isoform): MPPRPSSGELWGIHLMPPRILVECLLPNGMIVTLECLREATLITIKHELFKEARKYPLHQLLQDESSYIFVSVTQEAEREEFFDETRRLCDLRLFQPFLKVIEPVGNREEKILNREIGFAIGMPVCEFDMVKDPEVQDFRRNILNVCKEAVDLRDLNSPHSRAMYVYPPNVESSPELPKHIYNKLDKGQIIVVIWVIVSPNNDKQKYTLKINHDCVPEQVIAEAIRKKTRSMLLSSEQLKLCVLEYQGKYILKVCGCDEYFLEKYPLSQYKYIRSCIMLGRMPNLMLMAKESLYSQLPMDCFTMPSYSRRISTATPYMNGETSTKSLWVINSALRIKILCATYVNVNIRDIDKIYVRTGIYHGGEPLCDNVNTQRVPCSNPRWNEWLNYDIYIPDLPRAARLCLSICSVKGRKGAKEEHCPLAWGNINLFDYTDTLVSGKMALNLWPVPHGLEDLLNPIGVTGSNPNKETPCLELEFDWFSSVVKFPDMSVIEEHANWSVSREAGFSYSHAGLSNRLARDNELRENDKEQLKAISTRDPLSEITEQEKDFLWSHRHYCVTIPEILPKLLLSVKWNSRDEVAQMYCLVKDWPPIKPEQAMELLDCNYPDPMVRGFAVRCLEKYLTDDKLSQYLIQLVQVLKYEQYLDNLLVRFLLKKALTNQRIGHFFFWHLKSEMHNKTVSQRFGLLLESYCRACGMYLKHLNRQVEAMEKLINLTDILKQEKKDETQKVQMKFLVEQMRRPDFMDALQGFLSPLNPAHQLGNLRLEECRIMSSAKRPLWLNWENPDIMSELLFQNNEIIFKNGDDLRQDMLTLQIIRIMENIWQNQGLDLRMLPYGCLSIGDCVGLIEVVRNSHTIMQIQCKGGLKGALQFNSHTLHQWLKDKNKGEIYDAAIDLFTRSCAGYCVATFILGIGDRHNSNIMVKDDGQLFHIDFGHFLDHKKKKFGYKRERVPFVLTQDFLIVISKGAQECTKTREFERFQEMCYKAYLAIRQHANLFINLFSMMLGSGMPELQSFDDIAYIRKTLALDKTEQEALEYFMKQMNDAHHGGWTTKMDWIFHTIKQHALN

What is called IC50 is the concentration needed to halve the response being measured. Regarding `CO[C@H]1CC[C@@H](n2ncc3c(N4CC5CCC(C4)O5)nc(-c4ccc(NC(=O)NC5CC5)cc4)nc32)CC1` (relative stereo) [Example 398, 1-cyclopropyl-3-{4-[1-(cis-4-methoxycyclohexyl)-4-(8-oxa-3-azabicyclo[3.2.1]oct-3-yl)-1H-pyrazolo[3,4-d]pyrimidin-6-yl]phenyl}urea], the IC50 in experiment [1] stood at 0.52 nM; in experiment [2] it was 1150 nM; in experiment [3], 5650 nM; in experiment [4] it was 1 nM; in experiment [5], 20 nM.
In the same order, the values of `CO[C@H]1CC[C@H](n2ncc3c(N4CC5CCC(C4)O5)nc(-c4ccc(NC(=O)NC5CC5)cc4)nc32)CC1` (relative stereo) [Example 399, 1-cyclopropyl-3-{4-[1-(trans-4-methoxycyclohexyl)-4-(8-oxa-3-azabicyclo[3.2.1]oct-3-yl)-1H-pyrazolo[3,4-d]pyrimidin-6-yl]phenyl}urea] are 0.52 nM, 1500 nM, 6600 nM, 1 nM and 41 nM.
For the molecule `O=C(Nc1ccc(-c2nc(N3CC4CCC(C3)O4)c3cnn([C@H]4CC[C@@H](O)CC4)c3n2)cc1)NC1CC1` (relative stereo) [Example 402, 1-cyclopropyl-3-{4-[1-(cis-4-hydroxycyclohexyl)-4-(8-oxa-3-azabicyclo[3.2.1]oct-3-yl)-1H-pyrazolo[3,4-d]pyrimidin-6-yl]phenyl}urea], the IC50 in experiment [1] was 0.41 nM; in experiment [2], 2970 nM; in experiment [3] it was > 10000 nM; in experiment [4], 2 nM; in experiment [5] it was 40 nM.
For `O=C(Nc1ccc(-c2nc(N3CC4CCC(C3)O4)c3cnn([C@H]4CC[C@H](O)CC4)c3n2)cc1)NC1CC1` (relative stereo) [Example 403, 1-cyclopropyl-3-{4-[1-(trans-4-hydroxycyclohexyl)-4-(8-oxa-3-azabicyclo[3.2.1]oct-3-yl)-1H-pyrazolo[3,4-d]pyrimidin-6-yl]phenyl}urea], the IC50 in experiment [1] is 0.4 nM; in experiment [2], 3630 nM; in experiment [3], > 10000 nM; in experiment [4] it was 5 nM; in experiment [5], 180 nM.
In the same order, the values of `CN1CCN(c2ccc(NC(=O)Nc3ccc(-c4nc(N5CC6CCC(C5)O6)c5cnn([C@H]6CC[C@H](O)CC6)c5n4)cc3)cc2)CC1` (relative stereo) [Example 404, 1-{4-[1-(trans-4-hydroxycyclohexyl)-4-(8-oxa-3-azabicyclo[3.2.1]oct-3-yl)-1H-pyrazolo[3,4-d]pyrimidin-6-yl]phenyl}-3-[4-(4-methylpiperazin-1-yl)phenyl]urea] are 0.19 nM, 93 nM, 1140 nM, < 1 nM and 18 nM.
Taken in the same sequence, the figures for `CN1CCN(c2ccc(NC(=O)Nc3ccc(-c4nc(N5CC6CCC(C5)O6)c5cnn([C@H]6CC[C@@H](O)CC6)c5n4)cc3)cc2)CC1` (relative stereo) [Example 405, 1-{4-[1-(cis-4-hydroxycyclohexyl)-4-(8-oxa-3-azabicyclo[3.2.1]oct-3-yl)-1H-pyrazolo[3,4-d]pyrimidin-6-yl]phenyl}-3-[4-(4-methylpiperazin-1-yl)phenyl]urea] were 0.33 nM, 107 nM, 1360 nM, < 1 nM and 20 nM.
In the same order, the values of `O=C(Nc1ccncc1)Nc1ccc(-c2nc(N3CC4CCC(C3)O4)c3cnn(C4CCC5(CCCO5)CC4)c3n2)cc1` (single isomer, unassigned) [Example 312, 1-(4-{4-(8-oxa-3-azabicyclo[3.2.1]oct-3-yl)-1-[(5r,8r)-1-oxaspiro[4.5]dec-8-yl]-1H-pyrazolo[3,4-d]pyrimidin-6-yl}phenyl)-3-pyridin-4-ylurea] are 0.203 nM, 353 nM, 2220 nM, 1 nM and 12 nM.
For `CN1CCN(c2ccc(NC(=O)Nc3ccc(-c4nc(N5CC6CCC(C5)O6)c5cnn(C6CCC7(CCCO7)CC6)c5n4)cc3)cc2)CC1` (single isomer, unassigned) [Example 313, 1-[4-(4-methylpiperazin-1-yl)phenyl]-3-(4-{4-(8-oxa-3-azabicyclo[3.2.1]oct-3-yl)-1-[(5r,8r)-1-oxaspiro[4.5]dec-8-yl]-1H-pyrazolo[3,4-d]pyrimidin-6-yl}phenyl)urea], the IC50 in experiment [1] worked out at 0.365 nM; in experiment [2], 581 nM; in experiment [3], 1450 nM; in experiment [4], 1 nM; in experiment [5], 15 nM.
Taken in the same sequence, the figures for `O=C(Nc1ccc(-c2nc(N3CC4CCC(C3)O4)c3cnn(C4CCC5(CCCO5)CC4)c3n2)cc1)Nc1ccc(N2CCNCC2)cc1` (single isomer, unassigned) [Example 314, 1-(4-{4-(8-oxa-3-azabicyclo[3.2.1]oct-3-yl)-1-[(5r,8r)-1-oxaspiro[4.5]dec-8-yl]-1H-pyrazolo[3,4-d]pyrimidin-6-yl}phenyl)-3-(4-piperazin-1-ylphenyl)urea] were 0.455 nM, 511 nM, 2020 nM, 1 nM and 15 nM.
Taken in the same sequence, the figures for `O=C(Nc1ccc(-c2nc(N3CC4CCC(C3)O4)c3cnn(C4CCC5(CCCO5)CC4)c3n2)cc1)OCCO` (single isomer, unassigned) [Example 315, 2-hydroxyethyl (4-{4-(8-oxa-3-azabicyclo[3.2.1]oct-3-yl)-1-[(5r,8r)-1-oxaspiro[4.5]dec-8-yl]-1H-pyrazolo[3,4-d]pyrimidin-6-yl}phenyl)carbamate] were 0.8 nM, 5600 nM, 2060 nM, 10 nM and 220 nM.
In the same order, the values of `O=C(Nc1ccc(-c2nc(N3CC4CCC(C3)O4)c3cnn(C4CCC5(CCCO5)CC4)c3n2)cc1)NC1CC1` (single isomer, unassigned) [Example 316, 1-cyclopropyl-3-(4-{4-(8-oxa-3-azabicyclo[3.2.1]oct-3-yl)-1-[(5r,8r)-1-oxaspiro[4.5]dec-8-yl]-1H-pyrazolo[3,4-d]pyrimidin-6-yl}phenyl)urea] are 0.495 nM, 4560 nM, > 10000 nM, 7 nM and 160 nM.

For the origin of these results see patent US8129371B2, “Thienopyrimidine and pyrazolopyrimidine compounds and their use as mTOR kinase and PI3 kinase inhibitors” (Wyeth LLC, priority 2007, dated 2012).
